System: P12-Ichikawa
Assay: cell viability relative to DMSO control; higher = less cytotoxic
Details: 48 h
Summary of the method: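 Three leukemia lines were tested: NOMO1 and SEM at 500 cells/well and P12-Ichikawa at 1000 cells/well. Each was adapted for at least four passages in each medium and seeded in 5 μl in 1536-well plates, and library compounds in DMSO were pin-dosed from 47 μM to 0.79 nM in 11 threefold steps. After 48 h at 37°C, CellTiter-Glo One luminescence was read. Viability is a percentage relative to DMSO wells on each plate, with cell-free wells as background.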

[1] = HPLM + 10% dialyzed FBS, 0.000781 µM
[2] = HPLM + 10% dialyzed FBS, 0.00234 µM
[3] = HPLM + 10% dialyzed FBS, 0.00702 µM
[4] = HPLM + 10% dialyzed FBS, 0.0211 µM
[5] = HPLM + 10% dialyzed FBS, 0.0632 µM
[6] = HPLM + 10% dialyzed FBS, 0.19 µM
[7] = HPLM + 10% dialyzed FBS, 0.569 µM
[8] = HPLM + 10% dialyzed FBS, 1.71 µM
[9] = HPLM + 10% dialyzed FBS, 5.12 µM
[10] = HPLM + 10% dialyzed FBS, 15.4 µM
[11] = HPLM + 10% dialyzed FBS, 46.1 µM
[12] = RPMI 5 mM glucose + 10% FBS, 0.000781 µM
[13] = RPMI 5 mM glucose + 10% FBS, 0.00234 µM
[14] = RPMI 5 mM glucose + 10% FBS, 0.00702 µM
[15] = RPMI 5 mM glucose + 10% FBS, 0.0211 µM
[16] = RPMI 5 mM glucose + 10% FBS, 0.0632 µM
[17] = RPMI 5 mM glucose + 10% FBS, 0.19 µM
[18] = RPMI 5 mM glucose + 10% FBS, 0.569 µM
[19] = RPMI 5 mM glucose + 10% FBS, 1.71 µM
[20] = RPMI 5 mM glucose + 10% FBS, 5.12 µM
[21] = RPMI 5 mM glucose + 10% FBS, 15.4 µM
[22] = RPMI 5 mM glucose + 10% FBS, 46.1 µM
[23] = RPMI 5 mM glucose + 10% dialyzed FBS, 0.000781 µM
[24] = RPMI 5 mM glucose + 10% dialyzed FBS, 0.00234 µM
[25] = RPMI 5 mM glucose + 10% dialyzed FBS, 0.00702 µM
[26] = RPMI 5 mM glucose + 10% dialyzed FBS, 0.0211 µM
[27] = RPMI 5 mM glucose + 10% dialyzed FBS, 0.0632 µM
[28] = RPMI 5 mM glucose + 10% dialyzed FBS, 0.19 µM
[29] = RPMI 5 mM glucose + 10% dialyzed FBS, 0.569 µM
[30] = RPMI 5 mM glucose + 10% dialyzed FBS, 1.71 µM
[31] = RPMI 5 mM glucose + 10% dialyzed FBS, 5.12 µM
[32] = RPMI 5 mM glucose + 10% dialyzed FBS, 15.4 µM
[33] = RPMI 5 mM glucose + 10% dialyzed FBS, 46.1 µM

Structure (SMILES)	cell viability [1] [%]	cell viability [2] [%]	cell viability [3] [%]	cell viability [4] [%]	cell viability [5] [%]	cell viability [6] [%]	cell viability [7] [%]	cell viability [8] [%]	cell viability [9] [%]	cell viability [10] [%]	cell viability [11] [%]	cell viability [12] [%]	cell viability [13] [%]	cell viability [14] [%]	cell viability [15] [%]	cell viability [16] [%]	cell viability [17] [%]	cell viability [18] [%]	cell viability [19] [%]	cell viability [20] [%]	cell viability [21] [%]	cell viability [22] [%]	cell viability [23] [%]	cell viability [24] [%]	cell viability [25] [%]	cell viability [26] [%]	cell viability [27] [%]	cell viability [28] [%]	cell viability [29] [%]	cell viability [30] [%]	cell viability [31] [%]	cell viability [32] [%]	cell viability [33] [%]
COc1cc2nccc(Oc3ccc(NC(=O)Nc4ccc(F)cc4F)c(F)c3)c2cc1OC	95.4	93.2	94.7	100	98.1	89.3	91.8	94.1	85	76.5	12.9	91.1	94.8	88.4	94.8	93.5	92.2	83.8	86	73.5	80.3	13.7	88	98.3	87.5	89.9	82.1	87.4	84.5	85.3	75	81.9	22.2
C[C@H]1CN(C[C@@H](C)O1)CC(=O)NC2=CC=C3SC4=C(CC3=C2)C=CC=C4\C5=C\C(=O)\C=C(/O5)N6CCOCC6	91.6	113	73.7	110	110	123	116	108	107	80.3	51.1	97.8	113	66.9	125	110	120	114	124	109	95.8	49.8	94.7	119	86.3	116	120	122	128	118	121	88.1	48.9
CSC1=CC(=CC=C1)NC2=NC3=C(C=N2)/C=C(C(=O)N3C)/C4=C(Cl)C=CC=C4Cl	102	95	101	98.3	106	110	99.2	105	97.4	95.1	103	99.6	111	115	109	115	106	112	112	109	95.5	102	110	109	110	90.8	110	120	112	112	109	97.5	97.7
CN1C(=O)\C(=C/C(=C1/NC2=C(F)C=C(I)C=C2)C(=O)NOCCO)C	94.6	99.5	103	93.4	90.4	90.1	94.5	88.9	94.5	87.7	78.1	98.2	104	98.9	90.7	88.8	85.3	85.5	84.7	85.7	87.1	81.1	94.6	105	96.2	99.6	92.3	90.7	95.8	90.9	101	91	74.9
